# According to patent US20240181049A1, “HARNESSING THE POWER OF MICROBIOTA AND METABOLITES FOR THE TREATMENT OF CANCER” (UTI LIMITED PARTNERSHIP, priority 2019, published 2024):
# Legend:
# MC38 tumor cells = test: MC38 tumors in GF Rag1-deficient mice receiving WT or A2AR-deficient T cells, inosine + anti-CTLA-4 + CpG; type: in vivo; settings: WT vs A2AR-deficient T cells
# Method: FIG. 5A-5L: Inosine promotes Th1 activation and anti-tumor immunity. (a) Schematic overview of experimental setup to assess the effect of inosine on Th1 activation in vivo. (b, c) Representative dot plots and quantification (left and right panel respectively) of T-bet^+IFN-γ^+CD3ε^+ (b) CD8^+ or (c) CD4^+ T cells in the MLN. (d) Schematic overview of experimental setup to assess the effect of inosine on anti-tumor immunity. Upon palpable tumors, mice were treated with 100 μg anti-CTLA-4 i.p. (5 times every 72 hours) and in some groups 20 μg CpG i.p. (5 times every 72 hours). In addition, inosine (300 mg/KG/BW) or PBS was given daily orally (O), through gavage or systemically (S) through i.p. injection. (e) Tumor weight and quantification of IFN-γ^+ cells amongst (f) CD4^+ or (g) CD8^+ cells are shown. (h). Schematic overview to assess the requirement of A2AR signaling for inosine-induced anti-tumor immunity. 1×10^6 MC38 cells (s.c.) and WT or A2AR-deficient 1×10^7 T cells (i.v. 6×10^6 CD4^+ and 4×10^6 CD8^+ cells) were injected. Upon palpable tumors, mice were treated with 100 μg anti-CTLA-4, 20 μg CpG (4 times every 72 hours, both i.p.) and inosine (daily, 300 mg/KG/BW, through gavage). (i) Pictures of tumors are shown at day 20. scale bars: 1 cm. (j) Tumor weight and quantification of IFN-γ^+ in (k) CD8^+ or (l) CD4^+ cells in the tumor are shown. Data are mean±SEM and pooled from two individual experiments (a-l) 10-11 mice/group. *, P<0.05; **, P<0.01; ***, P<0.001.
# To evaluate the effect of inosine on Th1 activation, mice received 30 μg CpG, […] EndoFit Ovalbumin (both Invivogen) and 2 μg OVA323-339 (Sigma) i.p. and 24 hours later mice received 300 mg/kg/BW inosine or PBS as a control through i.p. injection. T cell differentiation was assessed 48 hours later. To assess the impact of inosine on tumor development during ICB therapy 1×10^6 cancer cells were injected subcutaneously (s.c.) in the flank of germ-free mice. […]
# MC38 = MC38 tumors in SPF mice, inosine or B. pseudolongum + anti-CTLA-4; type: in vivo; settings: oral gavage
# Method: FIG. 35A-35H. Inosine and live B. pseudolongum improve anti-CTLA-4 therapy efficacy in moderately diverse and complex microbiomes. A) Schematic overview of experimental setup to assess the effect of inosine on anti-tumor immunity in gnotobiotic mice (Oligo-MM12) stably colonized with 12 bacterial species. Upon palpable tumors, Oligo-MM12 colonized mice were treated with 100 μg anti-CTLA-4 i.p. or Isotype antibody (5 times every 72 hours). In addition, inosine (300 mg/KG/BW) or PBS was given daily orally through gavage. (B) Pictures of tumors and (C) tumor weight are shown at day 20. scale bars: 1 cm. (D) Quantification of intratumoral IFN-γ+ cells amongst CD8+ or CD4+ T cells are shown. (E) Schematic overview of experimental setup to assess the effect of inosine and B. pseudolongum on anti-tumor immunity in SPF mice. Following MC38 injection some mice received antibiotics (ABX), specifically Ampicillin 1 mg/ml, Colistin 1 mg/ml and Streptomycin 5 mg/ml for 7 days in the drinking water. Upon palpable tumors, antibiotics were removed and 100 μg anti-CTLA-4 (5 times every 72 hours) started. Mice concomitantly received either PBS, inosine (300 mg/KG/BW daily), B. pseudolongum or heat inactivated (H.i.) B. pseudolongum orally through gavage (5 times every 72 hours). […] (H) Quantification of intratumoral IFN-γ+ cells amongst CD8+ or CD4+ cells are shown. […]
structure (smiles),measurement,setting,value
OC[C@H]1O[C@@H](n2cnc3c(O)ncnc32)[C@H](O)[C@@H]1O [inosine],IFN-γ production within tumors,MC38 tumor cells,WT but not A2AR-deficient T cells displayed increased IFN-γ production within tumors
same,tumor weights,MC38 tumor cells,only GF mice receiving WT T cells showed reduced tumor weights
same,anti-CTLA-4/CpG-mediated anti-tumor immunity,MC38 tumor cells; inosine oral,enhanced anti-CTLA-4/CpG-mediated anti-tumor immunity in animals that received WT but not A2AR-deficient T cells
same,efficacy of anti-CTLA-4,MC38,could promote the efficacy of anti-CTLA-4
